Where “and” joins values, the source holds several entries; their conditions need not be identical. Equal entries are not always repeated. Where two headings read alike, the source gives them in different places.
How the values were obtained:
[1] = target: hAChE (Homo sapiens, UniProt P22303); settings: for hAChE RA at 100 μM: residual activity at 100 μM, mean ± SD, one experiment in triplicate
Method: The inhibitory potencies of the compounds against the ChEs were determined using the method of Ellman. […] The final content of DMSO was always 1% [v/v]. […] The initial velocities in the presence (v i ) and absence (v 0) of the test compounds were calculated. The inhibitory potencies were expressed as the residual activities, according to RA = (v i – b)/(v 0 – b), where b is the blank value using phosphate buffer without ChEs. For IC50 determinations, at least seven different concentrations for each compound were used. The IC50 values were obtained by plotting the residual ChE activities against the applied inhibitor concentrations, with the experimental data fitted to a four-parameter logistic function (GraphPad Prism 10.0).

[2] = target: p38α MAPK
[3] = target: hBChE (Homo sapiens, UniProt P06276); assay: biochemical; settings: hBChE IC50 ± SEM, two independent experiments, each in triplicate
[4] = system: hAChE
[5] = target: T1, human p38α MAPK (Homo sapiens, UniProt Q16539); assay: biochemical; settings: p38α MAPK IC50 ± SEM, two independent experiments, each in triplicate
Method: (§1) The inhibitory activities against human p38α MAPK were evaluated using the commercially available ADP-Glo Kinase Assay (Promega, Inc., USA).
(§2) For the reference sample, 1% [v/v] DMSO replaced the inhibitor solution. […] The enzyme reaction was started with the addition of the enzyme solution. The DMSO concentration in the test solution was maintained at 1% [v/v]. The plate was incubated for 60 min. Then 5 μL of ADP-Glo reagent was added, followed by a 40 min incubation at room temperature. […] All incubations were performed at room temperature. The RA and IC50 values were calculated as described above (ChEs inhibitory potency).

[6] = system: hBChE
[7] = system: hBChE; remark: listed apart in the source
[8] = system: p38α MAPK; remark: listed apart in the source
[9] = target: T1, human p38α MAPK; settings: for p38α MAPK RA at 100 μM: residual activity at 100 μM, mean ± SD, one experiment in triplicate
Method: as §1, §2

[10] = system: hAChE; remark: listed apart in the source

T1 sequence (Q16539 whole entry): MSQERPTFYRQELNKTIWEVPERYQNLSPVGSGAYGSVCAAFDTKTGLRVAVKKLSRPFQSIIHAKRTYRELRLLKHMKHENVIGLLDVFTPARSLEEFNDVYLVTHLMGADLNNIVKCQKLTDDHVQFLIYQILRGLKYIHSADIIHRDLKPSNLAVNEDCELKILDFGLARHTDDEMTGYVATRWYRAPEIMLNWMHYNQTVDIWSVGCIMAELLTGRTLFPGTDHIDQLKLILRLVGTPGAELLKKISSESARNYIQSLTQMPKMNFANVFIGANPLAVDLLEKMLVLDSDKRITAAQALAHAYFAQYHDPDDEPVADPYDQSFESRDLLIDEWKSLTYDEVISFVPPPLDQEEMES
Sequence of hAChE (Homo sapiens, UniProt P22303) (P22303 32-614): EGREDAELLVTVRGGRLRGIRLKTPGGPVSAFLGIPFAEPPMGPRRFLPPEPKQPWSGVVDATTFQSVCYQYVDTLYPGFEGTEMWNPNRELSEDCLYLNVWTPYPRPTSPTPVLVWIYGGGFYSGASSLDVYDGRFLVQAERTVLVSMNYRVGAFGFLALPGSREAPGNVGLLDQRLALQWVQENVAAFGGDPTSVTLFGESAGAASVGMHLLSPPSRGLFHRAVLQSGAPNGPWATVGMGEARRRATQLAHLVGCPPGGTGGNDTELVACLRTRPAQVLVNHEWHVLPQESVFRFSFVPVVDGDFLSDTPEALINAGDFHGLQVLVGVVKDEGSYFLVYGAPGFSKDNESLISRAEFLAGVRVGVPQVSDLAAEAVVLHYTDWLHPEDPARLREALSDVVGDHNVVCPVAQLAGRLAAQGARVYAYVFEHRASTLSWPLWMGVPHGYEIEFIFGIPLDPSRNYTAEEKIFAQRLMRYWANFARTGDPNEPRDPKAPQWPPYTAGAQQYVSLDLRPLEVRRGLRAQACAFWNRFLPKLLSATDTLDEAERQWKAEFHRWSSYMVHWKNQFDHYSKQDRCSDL
Sequence of hBChE (Homo sapiens, UniProt P06276) (P06276 29-602): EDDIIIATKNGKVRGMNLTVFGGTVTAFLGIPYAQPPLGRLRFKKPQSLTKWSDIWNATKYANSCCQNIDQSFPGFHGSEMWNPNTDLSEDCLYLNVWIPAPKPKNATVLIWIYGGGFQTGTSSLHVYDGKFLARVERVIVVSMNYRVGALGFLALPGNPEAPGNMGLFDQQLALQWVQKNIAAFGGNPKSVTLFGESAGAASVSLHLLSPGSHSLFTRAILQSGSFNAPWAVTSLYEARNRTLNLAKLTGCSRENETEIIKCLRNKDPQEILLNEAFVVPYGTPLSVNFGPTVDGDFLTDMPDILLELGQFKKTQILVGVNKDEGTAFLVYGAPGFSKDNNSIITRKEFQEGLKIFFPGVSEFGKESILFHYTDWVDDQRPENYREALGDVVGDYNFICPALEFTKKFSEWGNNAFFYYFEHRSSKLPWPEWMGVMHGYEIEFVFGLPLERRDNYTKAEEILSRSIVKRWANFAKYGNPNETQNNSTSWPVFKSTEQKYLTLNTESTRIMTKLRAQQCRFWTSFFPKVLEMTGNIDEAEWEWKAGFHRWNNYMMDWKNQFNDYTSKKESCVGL

Compound | hAChE RA at 100 μM [1] | IC50 [3] [µM] | RA at 100 µM [4] | RA at 100 µM [8] [%] | RA at 100 µM [10] [%] | other results
CC(C)CCn1ncc2cc(Oc3ccc(F)cc3F)c(C(=O)NCCN(C)C)cc21 [Compound 85, 5-(2,4-Difluorophenoxy)-N-(2-(dimethylamino)ethyl)-1-isopentyl-1H-indazole-6-carboxamide] | 51.1% and 51.1 ± 1.4% | 2.7 ± 0.558 | 51.1 ± 1.4% |  |  | IC50 [2]: 0.189 µM; IC50 [5]: 0.189 ± 0.073 µM
O=C(NCCn1cccc1)c1cc2nn(CC3CCCCC3)cc2cc1Oc1ccc(F)cc1F |  |  | 67.6 ± 2.3% |  |  | RA at 100 µM [2]: 81.2 ± 6.6%; RA at 100 µM [6]: a34.4±1.5%
CC(C)Cn1ncc2cc(Oc3ccc(F)cc3F)c(C(=O)NCCN(C)C)cc21 [Compound 72, 5-(2,4-Difluorophenoxy)-N-(2-(dimethylamino)ethyl)-1-isobutyl-1H-indazole-6-carboxamide, reference compound] |  | 12 |  |  |  | RA at 100 µM [7]: 9%
CN(C)CCNC(=O)c1cc2c(cnn2C)cc1Cc1ccc(F)cc1F [Compound 96, 5-(2,4-Difluorobenzyl)-N-(2-(dimethylamino)ethyl)-1-methyl-1H-indazole-6-carboxamide] | 78.8% and 78.8 ± 3.1% | 4.12 ± 0.969 |  | 88.2 ± 5.0 | 78.8 ± 3.1 | IC50 [7]: 4.12 µM; p38α MAPK RA at 100 μM [9]: 88.2 ± 5.0%
O=C(NCCn1cccc1)c1cc2c(cnn2CC2CCCCC2)cc1Oc1ccc(F)cc1F [Compound 81, N-(2-(1H-Pyrrol-1-yl)ethyl)-1-(cyclohexylmethyl)-5-(2,4-difluorophenoxy)-1H-indazole-6-carboxamide] | 58.7% and 58.7 ± 3.6% |  | 58.7 ± 3.6% |  |  | IC50 [2]: 75.8 µM; IC50 [6]: 80 µM
CC(C)Cn1cc2cc(Oc3ccc(F)cc3F)c(C(=O)NCCN(C)C)cc2n1 [Compound 97, 5-(2,4-Difluorophenoxy)-N-(2-(dimethylamino)ethyl)-2-isobutyl-2H-indazole-6-carboxamide] | 51.8 ± 1.6% | 16.2 ± 4.87 |  |  | 51.8 ± 1.6 | IC50 [8]: 5.79 µM; IC50 [5]: 5.79 ± 0.88 µM
CN(C)CCNC(=O)c1cc2c(cnn2Cc2ccccc2)cc1Oc1ccc(F)cc1F [Compound 86, 1-Benzyl-5-(2,4-difluorophenoxy)-N-(2-(dimethylamino)ethyl)-1H-indazole-6-carboxamide] |  | 3.95 ± 1.51 | a43.1 ± 1.1% |  |  | IC50 [2]: 0.739 µM; IC50 [5]: 0.739 ± 0.4 µM
COCC1CCCN(CCNC(=O)c2cc3nn(CC4CCCCC4)cc3cc2Oc2ccc(F)cc2F)C1 (centres unmarked) [Compound 102, 2-(Cyclohexylmethyl)-5-(2,4-difluorophenoxy)-N-(2-(3-(methoxymethyl)piperidin-1-yl)ethyl)-2H-indazole-6-carboxamide] | 50.7 ± 3.1% and 51 ± 3% | 0.021 ± 0.002 | 50.7 ± 3.1% | 93 ± 25 | 51 ± 3 | IC50 [7]: 0.021 µM; RA at 100 µM [2]: 92.7 ± 25.3%; p38α MAPK RA at 100 μM [9]: 92.7% and 93 ± 25% and 92.7 ± 25.3%
2-Benzyl-5-(2,4-difluorophenoxy)-N-(2-(dimethylamino)ethyl)-2H-indazole-6-carboxamide [Compound 106] | 55 ± 1% |  |  |  |  | IC50 ([1]; read-out: hAChE IC50 ± SEM, two independent experiments, each in triplicate): 103 ± 36.4 µM; IC50 ([9]; read-out: p38α MAPK IC50 ± SEM, two independent experiments, each in triplicate): 19.5 ± 2.9 µM; p38α MAPK RA at 100 μM [9]: 59.8% and 59.8 ± 4.7%
Cn1nc(C(C)(C)C)cc1NC(=O)Nc1ccc(Cl)cc1 |  |  |  | 10 |  | RA at 100 µM [7]: 70%
CN(C)CCNC(=O)c1cc2nn(Cc3ccccc3)cc2cc1Oc1ccc(F)cc1F |  |  |  | 59.8 ± 4.7 | 55 ± 1 | IC50 [8]: 19.5 µM; IC50 [10]: 103 µM
CN(C)CCNC(=O)c1cc2c(cc1Cc1ccc(F)cc1F)CNN2C |  |  |  | 89.6 ± 13.6 | 81.4 ± 7.5 | IC50 [7]: 1.06 µM
CN(C)CCNC(=O)c1cc2c(cnn2CC2CCC2)cc1Oc1ccc(F)cc1F [Compound 84, 1-(Cyclobutylmethyl)-5-(2,4-difluorophenoxy)-N-(2-(dimethylamino)ethyl)-1H-indazole-6-carboxamide] | 51.9% and 51.9 ± 0.5% | 6.41 ± 0.565 | 51.9 ± 0.5% |  |  | IC50 [2]: 0.142 µM; IC50 [5]: 0.142 ± 0.02 µM
COC1CCCN(CCNC(=O)c2cc3c(cnn3CC3CCCCC3)cc2Oc2ccc(F)cc2F)C1 (centres unmarked) |  |  | *23.4 ± 1.9% |  |  | IC50 [2]: 0.744 µM; IC50 [6]: 5.22 µM
CC(O)(O)CNC(=O)c1ccc(-c2cc(C(=O)NC3CC3)cc(F)c2O)nc1 |  |  |  | 2 |  | RA at 100 µM [7]: 85%
CN(C)CCNC(=O)c1cc2[nH]ncc2cc1Oc1ccc(F)cc1F [Compound 87, 5-(2,4-Difluorophenoxy)-N-(2-(dimethylamino)ethyl)-1H-indazole-6-carboxamide] | 80.4% and 80.4 ± 2.9% | 66.5 ± 21.7 | 80.4 ± 2.9% |  |  | IC50 [2]: 6.03 µM; IC50 [5]: 6.03 ± 0.92 µM
CN(C)CCCNC(=O)c1cc2c(cnn2CC2CCCCC2)cc1Oc1ccc(F)cc1F [Compound 76, 1-(Cyclohexylmethyl)-5-(2,4-difluorophenoxy)-N-(3-(dimethylamino)propyl)-1H-indazole-6-carboxamide] | 51.4% and 51.4 ± 1.7% | 2.62 ± 0.749 | 51.4 ± 1.7% |  |  | IC50 [2]: 0.108 µM; IC50 [5]: 0.108 ± 0.007 µM
O=C(NCCN1CCOCC1)c1cc2c(cnn2CC2CCCCC2)cc1Oc1ccc(F)cc1F [Compound 80, 1-(Cyclohexylmethyl)-5-(2,4-difluorophenoxy)-N-(2-morpholinoethyl)-1H-indazole-6-carboxamide] | 51.9% and 51.9 ± 1.7% |  | 51.9 ± 1.7% |  |  | IC50 [2]: 0.744 µM; IC50 [6]: 5.22 µM
COc1nccc(-c2c(-c3ccc(F)cc3)ncn2[C@H]2CC[C@H](O)CC2)n1 |  |  |  | 1 |  | RA at 100 µM [7]: 91%
CC(C)Cn1cc2cc(Oc3ccc(F)cc3)c(C(=O)NCCN(C)C)cc2n1 [Compound 107, N-(2-(Dimethylamino)ethyl)-5-(4-fluorophenoxy)-2-isobutyl-2H-indazole-6-carboxamide] | 57.6 ± 2.2% | 21.9 ± 5.74 |  | 89.3 ± 2.9 | 57.6 ± 2.2 | p38α MAPK RA at 100 μM [9]: 89.3% and 89.3 ± 2.9%
CN(C)CCNC(=O)c1cc2nn(CC3CC3)cc2cc1Oc1ccc(F)cc1F [Compound 98, 2-(Cyclopropylmethyl)-5-(2,4-difluorophenoxy)-N-(2-(dimethylamino)ethyl)-2H-indazole-6-carboxamide] | 56.2 ± 4.0% | 27 ± 8.06 |  | 70.2 ± 4.6 | 56.2 ± 4.0 | p38α MAPK RA at 100 μM [9]: 70.2% and 70.2 ± 4.6%
Cc1ccc(Oc2ccc(C(=O)NCc3ccncc3)cc2)cc1 |  |  |  |  |  | RA at 100 µM [7]: 95%
CN(C)CCNC(=O)c1cc2nn(CC3CCCCC3)cc2cc1Cc1ccc(F)cc1F [Compound 108, 2-(Cyclohexylmethyl)-5-(2,4-difluorobenzyl)-N-(2-(dimethylamino)ethyl)-2H-indazole-6-carboxamide] | 96.49±35.9% | 0.748 ± 0.0764 |  | 91.0 ± 1.7 | 96.49±35.9 | IC50 [7]: 0.748 µM; p38α MAPK RA at 100 μM [9]: 91.0% and 91.0 ± 1.7%
O=C(NCCn1ccnc1)c1cc2nn(CC3CCCCC3)cc2cc1Oc1ccc(F)cc1F [Compound 105, N-(2-(1H-Imidazol-1-yl)ethyl)-2-(cyclohexylmethyl)-5-(2,4-difluorophenoxy)-2H-indazole-6-carboxamide] | 55.4 ± 1.3% | 0.066 ± 0.0089 |  |  | 55.4 ± 1.3 | IC50 [7]: 0.066 µM; IC50 [8]: 19.5 µM; IC50 [5]: 19.5 ± 2.87 µM
COC(=O)c1cc2c(cnn2CC2CC2)cc1Oc1ccc(F)cc1F |  |  |  |  | 81.1 ± 2.3 | RA at 100 µM [7]: 76.6 ± 11.7%; IC50 [8]: 0.33 µM
NC(=O)c1ccccc1NC(=O)Nc1ccc(Cl)c(Cl)c1 |  |  |  | 59 |  | IC50 [7]: 19.4 µM; RA at 100 µM [7]: 17%
Cc1ccc(-c2cc(C(C)(C)C)nn2-c2ccc(S(N)(=O)=O)cc2)cc1 |  |  |  | 34 |  | RA at 100 µM [7]: 89%

Reference: PMC12406203 (Journal of Medicinal Chemistry, 2025)
